According to patent US8227501B2, “1,6-dihydro-2H-3-oxa-6-aza-as-indacene compounds” (Ferrer Internacional, S.A., priority 2008, dated 2012):

Target: T1, recombinant human-MT1 receptor (Homo sapiens, UniProt P48039)
T1 construct: expressed in transfected cells; host or cells: unnamed cell line stably overexpressing human MT1, co-expressing mitochondrial apoaequorin and Gα16
Assay: In vitro MT1 screening, agonist activity (AequoScreen aequorin luminescence)
Assay type: cell-based
Details: percentage of activity relative to the reference agonist at the EC100 concentration; for activation at 0.001 µM: read-out: Agonism percentages of MT1, 1 nM; for activation at 0.1 µM: read-out: Agonism percentages of MT1, 100 nM
Excerpt: To proceed with compound screening over MT1 receptor, a cell line characterised by a stable overexpression of recombinant human-MT1 receptor was used. This line co-expresses mitochondrial apoaequorin and subunit Gα16.
Subunit Gα16 belongs to […], in which intracelular signal transduction is produced via phospholipase (PLC). Activation of PLC produces an increment of inositol-triphosphate levels and intracellular calcium levels. This increment in calcium levels is, therefore, independent and full compatible with the signal transduction of MT1 receptor.
After binding to calcium, aequorin carries out the oxidation of colenterazine to colenteramide, a luminescent reaction.
Assay protocol for agonist screening consists in an overnight incubation of cells and colenterazine, being performed by an AequoScreen™ system instrument, PerkinElmer, USA. After that this mixture was injected over a plate that contains the solution of the compounds to screen and luminescence was immediately read. Only in case of antagonism screening, after 15-30 min of the first injection the reference agonist was added in the same well, and then luminescence was measured.
Agonist activity was calculated as percentage of activity relative to the reference agonist at the EC100 concentration. Activity of antagonists was expressed as the inhibition percentage over the activity of reference agonist at its EC80, concentration.

T1 sequence (P48039 whole entry): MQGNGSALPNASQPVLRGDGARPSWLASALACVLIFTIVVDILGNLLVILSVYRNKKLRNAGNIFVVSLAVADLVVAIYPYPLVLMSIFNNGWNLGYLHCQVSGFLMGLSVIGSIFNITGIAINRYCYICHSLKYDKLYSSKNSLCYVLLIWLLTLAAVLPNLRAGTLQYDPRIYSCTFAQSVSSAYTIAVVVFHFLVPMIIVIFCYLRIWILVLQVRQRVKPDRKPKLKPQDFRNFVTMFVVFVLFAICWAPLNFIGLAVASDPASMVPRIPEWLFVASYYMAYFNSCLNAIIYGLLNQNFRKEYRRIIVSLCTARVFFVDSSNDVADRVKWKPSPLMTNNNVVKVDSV

Row | SMILES | activation at 0.001 µM (1 nM compound) | activation at 0.1 µM (100 nM compound) | Agonism percentages of MT1, 1 nM (1 nM compound) | Agonism percentages of MT1, 100 nM (100 nM compound)
1 | CC(=O)NCCc1c[nH]c2cc(F)c3c(c12)CCO3 [Compound 13, N-[2-(4-Fluoro-1,6-dihydro-2H-3-oxa-6-aza-as-indacen-8-yl)-ethyl]-acetamide] | 37.7% | 92.9% |  | 
2 | CCC(=O)NCCc1c[nH]c2cc(F)c3c(c12)CCO3 [Compound 14, N-[2-(4-Fluoro-1,6-dihydro-2H-3-oxa-6-aza-as-indacen-8-yl)-ethyl]-propionamide] | 55.1% | 102% |  | 
3 | CCCC(=O)NCCc1c[nH]c2cc(F)c3c(c12)CCO3 [Compound 15, N-[2-(4-Fluoro-1,6-dihydro-2H-3-oxa-6-aza-as-indacen-8-yl)-ethyl]-butiramide] |  |  | 43.0% | 108.2%
4 | CC(C)C(=O)NCCc1c[nH]c2cc(F)c3c(c12)CCO3 [Compound 16, N-[2-(4-Fluoro-1,6-dihydro-2H-3-oxa-6-aza-as-indacen-8-yl)-ethyl]-isobutyramide] | 23% | 82.3% |  | 
5 | O=C(NCCc1c[nH]c2cc(F)c3c(c12)CCO3)C1CC1 [Compound 17, Cyclopropanecarboxylic acid [2-(4-fluoro-1,6-dihydro-2H-3-oxa-6-aza-as-indacen-8-yl)-ethyl]-amide] | 43.8% | 93.2% |  | 
6 | O=C(NCCc1c[nH]c2cc(F)c3c(c12)CCO3)C(F)(F)F [Compound 18, 2,2,2-Trifluoro-N-[2-(4-fluoro-1,6-dihydro-2H-3-oxa-6-aza-as-indacen-8-yl)-ethyl]-acetamide] | 59.8% | 105% |  | 
7 | CCCC(=O)NCC(C)c1c[nH]c2cc(F)c3c(c12)CC(C)O3 (centres unmarked) [Compound 19, N-[2-(4-Fluoro-2-methyl-1,6-dihydro-2H-3-oxa-6-aza-as-indacen-8-yl)-propyl]-butyramide] | 27.8% | 96.8% |  | 
8 | CCC(=O)NCC(C)c1c[nH]c2cc(F)c3c(c12)CC(C)O3 (centres unmarked) [Compound 20, N-[2-(4-Fluoro-2-methyl-1,6-dihydro-2H-3-oxa-6-aza-as-indacen-8-yl)-propyl]-propionamide] | 30.2% | 94.3% |  | 
9 | CC(=O)NCC(C)c1c[nH]c2cc(F)c3c(c12)CC(C)O3 (centres unmarked) [Compound 21, N-[2-(4-Fluoro-2-methyl-1,6-dihydro-2H-3-oxa-6-aza-as-indacen-8-yl)-propyl]-acetamide] | 43.2% | 92.6% |  | 
10 | CC(=O)NCCc1c[nH]c2cc(F)c3c(c12)CC(C)O3 (centres unmarked) [Compound 22, N-[2-(4-Fluoro-2-methyl-1,6-dihydro-2H-3-oxa-6-aza-as-indacen-8-yl)-ethyl]-acetamide] | 50.5% | 96.8% |  | 
11 | CCC(=O)NCCc1c[nH]c2cc(F)c3c(c12)CC(C)O3 (centres unmarked) [Compound 23, N-[2-(4-Fluoro-2-methyl-1,6-dihydro-2H-3-oxa-6-aza-as-indacen-8-yl)-ethyl]-propionamide] | 39.1% | 99.7% |  | 
12 | CCCC(=O)NCCc1c[nH]c2cc(F)c3c(c12)CC(C)O3 (centres unmarked) [Compound 24, N-[2-(4-Fluoro-2-methyl-1,6-dihydro-2H-3-oxa-6-aza-as-indacen-8-yl)-ethyl]-butyramide] | 42.1% | 99.8% |  | 
13 | CCCCC(=O)NCCc1c[nH]c2cc(F)c3c(c12)CC(C)O3 (centres unmarked) [Compound 25, Pentanoic acid [2-(4-fluoro-2-methyl-1,6-dihydro-2H-3-oxa-6-aza-as-indacen-8-yl)-ethyl]-amide] | 31.9% | 98% |  | 
14 | CC1Cc2c(c(F)cc3[nH]cc(CCNC(=O)C(C)C)c23)O1 (centres unmarked) [Compound 26, N-[2-(4-Fluoro-2-methyl-1,6-dihydro-2H-3-oxa-6-aza-as-indacen-8-yl)-ethyl]-isobutyramide] | 25.7% | 84.8% |  | 
15 | CC1Cc2c(c(F)cc3[nH]cc(CCNC(=O)C4CC4)c23)O1 (centres unmarked) [Compound 27, Cyclopropanecarboxylic acid [2-(4-fluoro-2-methyl-1,6-dihydro-2H-3-oxa-6-aza-as-indacen-8-yl)-ethyl]-amide] | 33.8% | 91.1% |  | 
16 | CC1Cc2c(c(F)cc3[nH]cc(CCNC(=O)C(F)(F)F)c23)O1 (centres unmarked) [Compound 28, 2,2,2-Trifluoro-N-[2-(4-fluoro-2-methyl-1,6-dihydro-2H-3-oxa-6-aza-as-indacen-8-yl)-ethyl]-acetamide] | 36.1% | 97.2% |  | 
17 | COC(=O)NCCc1c[nH]c2cc(F)c3c(c12)CC(C)O3 (centres unmarked) [Compound 29, [2-(4-Fluoro-2-methyl-1,6-dihydro-2H-3-oxa-6-aza-as-indacen-8-yl)-ethyl]-carbamic acid methyl ester] | 17.4% | 77.3% |  | 
18 | CCOC(=O)NCCc1c[nH]c2cc(F)c3c(c12)CC(C)O3 (centres unmarked) [Compound 30, [2-(4-Fluoro-2-methyl-1,6-dihydro-2H-3-oxa-6-aza-as-indacen-8-yl)-ethyl]-carbamic acid ethyl ester] | 7.1% | 68.1% |  | 

More lines, now with the values ahead:

Row | activation at 0.001 µM (1 nM compound) | activation at 0.1 µM (100 nM compound) | Agonism percentages of MT1, 1 nM (1 nM compound) | Agonism percentages of MT1, 100 nM (100 nM compound) | SMILES
19 | 22.3% | 90.4% |  |  | CC(C)CC(=O)NCCc1c[nH]c2cc(F)c3c(c12)CC(C)O3 (centres unmarked) [Compound 31, N-[2-(4-Fluoro-2-methyl-1,6-dihydro-2H-3-oxa-6-aza-as-indacen-8-yl)-ethyl]-3-methyl-butyramide]
20 | 38.6% | 93.1% |  |  | CC1Cc2c(c(F)cc3[nH]cc(CCNC(=O)C(C)F)c23)O1 (centres unmarked) [Compound 32, 2-Fluoro-N-[2-(4-fluoro-2-methyl-1,6-dihydro-2H-3-oxa-6-aza-as-indacen-8-yl)-ethyl]-propionamide]
21 | 26.6% | 87.5% |  |  | CCNC(=O)NCCc1c[nH]c2cc(F)c3c(c12)CC(C)O3 (centres unmarked) [Compound 33, 1-Ethyl-3-[2-(4-fluoro-2-methyl-1,6-dihydro-2H-3-oxa-6-aza-as-indacen-8-yl)-ethyl]-urea]
22 | 18.4% | 95.8% |  |  | CC1Cc2c(c(F)cc3[nH]cc(C(C)CNC(=O)C(C)C)c23)O1 (centres unmarked) [Compound 34, N-[2-(4-Fluoro-2-methyl-1,6-dihydro-2H-3-oxa-6-aza-as-indacen-8-yl)-propyl]-isobutyramide]
23 | 30.5% | 94% |  |  | CC1Cc2c(c(F)cc3[nH]cc(C(C)CNC(=O)C4CC4)c23)O1 (centres unmarked) [Compound 35, Cyclopropanecarboxylic acid [2-(4-fluoro-2-methyl-1,6-dihydro-2H-3-oxa-6-aza-as-indacen-8-yl)-propyl]-amide]
24 | 20.9% | 89.7% |  |  | CC(C)CC(=O)NCC(C)c1c[nH]c2cc(F)c3c(c12)CC(C)O3 (centres unmarked) [Compound 36, N-[2-(4-Fluoro-2-methyl-1,6-dihydro-2H-3-oxa-6-aza-as-indacen-8-yl)-propyl]-3-methyl-butyramide]
25 | 6.6% | 52.8% |  |  | CC1Cc2c(c(F)cc3[nH]cc(C(C)CNC(=O)C(C)(C)C)c23)O1 (centres unmarked) [Compound 37, N-[2-(4-Fluoro-2-methyl-1,6-dihydro-2H-3-oxa-6-aza-as-indacen-8-yl)-propyl]-2,2-dimethyl-propionamide]
26 | 36.9% | 101% |  |  | CC1Cc2c(c(F)cc3[nH]cc(C(C)CNC(=O)C(F)(F)F)c23)O1 (centres unmarked) [Compound 38, 2,2,2-Trifluoro-N-[2-(4-fluoro-2-methyl-1,6-dihydro-2H-3-oxa-6-aza-as-indacen-8-yl)-propyl]-acetamide]
27 | 24.6% | 91.4% |  |  | CCCCC(=O)NCC(C)c1c[nH]c2cc(F)c3c(c12)CC(C)O3 (centres unmarked) [Compound 39, Pentanoic acid [2-(4-fluoro-2-methyl-1,6-dihydro-2H-3-oxa-6-aza-as-indacen-8-yl)-propyl]-amide]
28 | 24% | 95.2% |  |  | COC(=O)NCC(C)c1c[nH]c2cc(F)c3c(c12)CC(C)O3 (centres unmarked) [Compound 40, [2-(4-Fluoro-2-methyl-1,6-dihydro-2H-3-oxa-6-aza-as-indacen-8-yl)-propyl]-carbamic acid methyl ester]
29 | 13.1% | 78.9% |  |  | CCOC(=O)NCC(C)c1c[nH]c2cc(F)c3c(c12)CC(C)O3 (centres unmarked) [Compound 41, [2-(4-Fluoro-2-methyl-1,6-dihydro-2H-3-oxa-6-aza-as-indacen-8-yl)-propyl]-carbamic acid ethyl ester]
30 | 19.7% | 87.8% |  |  | CCNC(=O)NCC(C)c1c[nH]c2cc(F)c3c(c12)CC(C)O3 (centres unmarked) [Compound 42, 1-Ethyl-3-[2-(4-fluoro-2-methyl-1,6-dihydro-2H-3-oxa-6-aza-as-indacen-8-yl)-propyl]-urea]
31 | 30.6% | 92.8% |  |  | CC1Cc2c(c(F)cc3[nH]cc(C(C)CNC(=O)C(C)F)c23)O1 (centres unmarked) [Compound 43, 2-Fluoro-N-[2-(4-fluoro-2-methyl-1,6-dihydro-2H-3-oxa-6-aza-as-indacen-8-yl)-propyl]-propionamide]
